These results are taken from patent US8158621B2, “Methods of treating or preventing autoimmune diseases with 2,4-pyrimidinediamine compounds” (Rigel Pharmaceuticals, Inc., priority 2002, dated 2012).

The subject of one test is Human Jurkat T-cells (clone N). As to the kind of experiment: Jurkat T-cell activation (anti-TCR, CD69 upregulation). In kind it is cell-based.
Conditions: not given
In a few lines:
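Readout is CD69 upregulation by flow cytometry (anti-CD69-APC, 20 min at 4 °C) after 20 h anti-TCR (C305, 500 ng/ml) stimulation at 37 °C.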
On to `O=C(NCCO)c1cc2cc(Nc3ncc(F)c(Nc4ccc5oc(C(=O)NCCO)cc5c4)n3)ccc2o1` [Compound R950167], for which the IC50 is greater than 10 µM.
On the same count and under the same terms, in the case of `CC(C)(C)c1cccc(Nc2nc(Nc3cccc(OCC(=O)NCC(O)CO)c3)ncc2F)c1` (stereo not shown) [Compound R940277] it was 1.22 µM; in that of `O=C(O)COc1cccc(Nc2ncc(F)c(Nc3cccc(O)c3)n2)c1` [Compound R945126], greater than 10 µM.
Still for that read-out and setting: in the case of `CCOC(=O)CNc1cccc(Nc2ncc(F)c(Nc3cccc(O)c3)n2)c1` [Compound R950215] it was 5.01 µM.
Same read-out and setting: in the case of `FC(F)(F)c1cnc(Nc2ccc3c(c2)OCCO3)nc1Nc1ccc2c(c1)OCCO2` [Compound R920669] it was 19.8 µM.
As to `OCCn1ncc2cc(Nc3ncc(F)c(Nc4cccc(O)c4)n3)ccc21` [Compound R935256], the IC50 was 0.92 µM.
The same measure, in the same setting: the figure for `CCOC(=O)COc1ccc(Nc2nc(Nc3ccc(OCC(=O)OCC)cc3)c(N)c(C(=O)OCC)n2)cc1` [Compound R926567] is greater than 10 µM; for `Cc1noc(COc2cccc(Nc3nc(Nc4cccc(O)c4)ncc3F)c2)n1` [Compound R945130] it is greater than 10 µM; for `Cc1ccc(-c2ccccc2)cc1Nc1ncc(F)c(Nc2cc(-c3ccccc3)ccc2C)n1` [Compound R926402] it is greater than 10 µM.
Still for that read-out and setting: in the case of `CSc1nc(Nc2ccc3c(c2)OCCO3)nc(Nc2ccc3c(c2)OCCO3)c1Cl` [Compound R926475] it was greater than 10 µM; in that of `O=C(CNc1cccc(Nc2ncc(F)c(Nc3cccc(NCCO)c3)n2)c1)NCCO` [Compound R950231], 8.69 µM; in that of `O=C(COc1ccc(Nc2ncc(F)c(Nc3ccc4c(c3)OCCO4)n2)cc1)NCCO` [Compound R909239], 3.06 µM.
On the same count and under the same terms, in the case of `CCOC(=O)c1cnc(Nc2cccc(OCC(=O)NC)c2)nc1Nc1ccc2c(c1)OCCO2` [Compound R926800] it was greater than 10 µM; in that of `Cc1ccc(Nc2nc(Cl)ncc2F)cc1CNC(=O)OC(C)(C)C` [Compound R926924], 3.23 µM; in that of `Oc1cccc(Nc2ccnc(Nc3ccc(OCc4nn[nH]n4)cc3)n2)c1` [Compound R920819], greater than 10 µM.
For `CC(C)Oc1ccc(Nc2ncc(F)c(Nc3ccc4c(cnn4C)c3)n2)cc1` [Compound R935203], the IC50 was greater than 10 µM.
Still for that read-out and setting: the figure for `CCOC(=O)c1ncn2c1COc1c(Nc3nc(Nc4cccc(OCC(=O)NC)c4)ncc3F)cccc1-2` [Compound R909265] is 12 µM.
Same read-out and setting: the figure for `CC(C)Oc1cccc(Nc2nc(Nc3ccc4oc(C(=O)N5CCOCC5)cc4c3)ncc2F)c1` [Compound R926489] is greater than 10 µM; for `Fc1cnc(Nc2ccc3c(c2)OCCO3)nc1Nc1ccc2cn[nH]c2c1` [Compound R935261] it is 2.18 µM; for `Fc1cnc(Nc2ccc3c(c2)CCO3)nc1Nc1ccc2c(c1)CCO2` [Compound R909237] it is greater than 10 µM.
`CNC(=O)COc1cccc(Nc2ncc(F)c(Nc3cccc(N(CCO)CCO)c3)n2)c1` [Compound R950266] had an IC50 of 3.66 µM.
Compound `CC(C)Oc1ccc(Nc2ncc(F)c(Nc3ccc(OCc4nc(-c5ccccc5)no4)cc3)n2)cc1` [Compound R935139] gave an IC50 of 11 µM.
The same measure, in the same setting: the figure for `O=C(COc1cccc(Nc2ncc(F)c(Nc3ccc4c(c3)OCCO4)n2)c1)NCCO` [Compound R926505] is 1.15 µM; for `OCCn1ncc2cc(Nc3nc(Nc4cccc(O)c4)ncc3F)ccc21` [Compound R935259] it is 3.46 µM; for `OCCn1ncc2ccc(Nc3ncc(F)c(Nc4ccc5cnn(CCO)c5c4)n3)cc21` [Compound R935238] it is 6.73 µM.
Same read-out and setting: the figure for `Cc1noc(COc2ccc(Nc3nc(Nc4ccc5c(c4)OCCO5)ncc3F)cc2)n1` [Compound R935145] is 5.34 µM; for `OCCOc1cccc(Nc2ncc(CO)c(Nc3cccc(O)c3)n2)c1` [Compound R926735] it is 5.98 µM.
On the same count and under the same terms, in the case of `CCOC(=O)COc1cccc(Nc2ncc(F)c(Nc3ccc4c(c3)C(OC)CCO4)n2)c1` (stereo not shown) [Compound R950294] it was 9.79 µM; in that of `CS(=O)(=O)Nc1cccc(Nc2ncc(F)c(Nc3cccc(NS(C)(=O)=O)c3)n2)c1` [Compound R950100], 5.67 µM.
With `COC(=O)c1cc(Nc2nc(Nc3ccc4c(c3)OCCO4)ncc2F)cn1C` [Compound R935166], the IC50 was greater than 10 µM.
Regarding `COc1ccc(Nc2nc(Nc3cc(C)c(O)c(Cl)c3)ncc2F)cc1CN1CCOCC1` [Compound R940316], half-maximal inhibition (IC50) required 4.28 µM.
Still for that read-out and setting: in the case of `Cc1nc(COc2cccc(Nc3nc(Nc4ccc(OC(C)C)cc4)ncc3F)c2)no1` [Compound R945138] it was greater than 10 µM; in that of `O=C(CNc1cccc(Nc2ncc(F)c(Nc3ccc4c(c3)OCCO4)n2)c1)NCCN1CCOCC1` [Compound R950200], 2.26 µM; in that of `COC(=O)c1cnc(Nc2ccc(OCC(=O)N3CCCC3)cc2)nc1Nc1ccc(OCC(=O)N2CCCC2)cc1` [Compound R926559], 11.2 µM.
In turn, `COc1cc(Nc2ncc(F)c(Nc3ccc4c(cnn4C)c3)n2)cc(OC)c1` [Compound R935214] showed an IC50 of 1.38 µM.
For the compound `CNC(=O)COc1cccc(Nc2ncc(F)c(Nc3ccc4c(c3)OC(F)(F)C(F)(F)O4)n2)c1` [Compound R926732], the IC50 is 5.26 µM.
Still for that read-out and setting: in the case of `N#CCOc1ccc(Nc2nc(Nc3ccc(OCC(=O)O)cc3)ncc2F)cc1` [Compound R945097] it was greater than 10 µM.
The same measure, in the same setting: the figure for `CCOC(=O)COc1ccc(Nc2nc(Nc3ccc(OCC(=O)OCC)cc3)c(NC(=O)NC(=O)CCl)c(C(=O)OCC)n2)cc1` [Compound R926589] is greater than 10 µM; for `Cn1nc(I)c2cc(Nc3ncc(F)c(Nc4ccc(I)c(O)c4I)n3)ccc21` [Compound R935221] it is greater than 10 µM.
On the same count and under the same terms, in the case of `CNC(=O)COc1cccc(Nc2ncc(F)c(Nc3ccc(C)c(C(F)(F)F)c3)n2)c1` [Compound R926922] it was 6.12 µM.
In turn, `CNC(=O)CCn1ncc2ccc(Nc3ncc(F)c(Nc4cccc(O)c4)n3)cc21` [Compound R935294] showed an IC50 of 8.16 µM.
The same measure, in the same setting: the figure for `CCOC(=O)CNc1cccc(Nc2ncc(F)c(Nc3cccc(NCCO)c3)n2)c1` [Compound R950229] is 3.77 µM; for `COC(=O)c1cc2cc(Nc3ncc(F)c(Nc4ccc5[nH]c(C(=O)OC)cc5c4)n3)ccc2[nH]1` [Compound R926593] it is 1.28 µM; for `CNC(=O)CCn1ncc2cc(Nc3ncc(F)c(Nc4ccc(OC(C)C)cc4)n3)ccc21` [Compound R935310] it is 0.88 µM.
Same read-out and setting: in the case of `CCOC(=O)COc1cccc(Nc2nc(Nc3ccc4c(c3)OCCO4)ncc2F)c1` [Compound R926774] it was 12.7 µM; in that of `CCOC(=O)COc1ccc(Nc2ncc(Br)c(Nc3ccc(OCC(=O)OCC)cc3)n2)cc1` [Compound R925779], greater than 10 µM.

The test is the same for the next values; noted with them: Homo sapiens.
Compound `O=[N+]([O-])c1cccc(Nc2ncc(F)c(Nc3cccc([N+](=O)[O-])c3)n2)c1` [Compound R950160] showed a 50% inhibitory concentration (IC50) greater than 10 µM.
On the same count and under the same terms, the figure for `O=[N+]([O-])c1cc(Nc2ccnc(Nc3ccc(F)c([N+](=O)[O-])c3)n2)ccc1F` [Compound R950152] is 2.65 µM; for `COc1ccc([N+](=O)[O-])cc1Nc1ncc(F)c(Nc2cc([N+](=O)[O-])ccc2OC)n1` [Compound R950151] it is 14.2 µM; for `Cc1ccc([N+](=O)[O-])cc1Nc1ncc(F)c(Nc2cc([N+](=O)[O-])ccc2C)n1` [Compound R950146] it is greater than 10 µM.

Still in this test, the particulars now being: Homo sapiens, Jurkat.
For the compound `Oc1cccc(Nc2nc(Nc3ccc4cc[nH]c4c3)ncc2F)c1` [Compound R926751], inhibition was half-maximal at 5.59 µM (IC50).
Same read-out and setting: the figure for `OCCOc1ccc(Nc2ncc(F)c(Nc3cccc(O)c3)n2)cc1` [Compound R926376] is greater than 10 µM; for `Nc1cccc(Nc2nc(Nc3cccc(O)c3)ncc2F)c1` [Compound R950163] it is 24.1 µM.
The compound `O=C(O)c1cc(Nc2ncc(F)c(Nc3ccc(O)c(C(=O)O)c3)n2)ccc1O` [Compound R945041] yielded an IC50 greater than 10 µM.
On the same count and under the same terms, the figure for `c1cc2c(cc1Nc1cc(Nc3ccc4c(c3)OCCO4)nc(Nc3ccc4c(c3)OCCO4)n1)OCCO2` [Compound R926516] is 17.8 µM.
Same read-out and setting: the figure for `CN1C(=O)COc2cc(Nc3nc(Nc4cccc(O)c4)ncc3F)ccc21` [Compound R909264] is 3.24 µM; for `Oc1cccc(Nc2ncc(F)c(NCc3csc4ccc(Cl)cc34)n2)c1` [Compound R926722] it is greater than 10 µM.
The same measure, in the same setting: the figure for `COc1ccc(Nc2ncc(Br)c(Nc3ccc(OC)c(-c4ccccc4)c3)n2)cc1-c1ccccc1` [Compound R925802] is greater than 10 µM; for `CCOC(=O)C(C)(C)c1ccc(Nc2nc(Nc3ccc4c(c3)OCCO4)ncc2F)cc1` [Compound R935172] it is greater than 10 µM; for `COc1ccc(Nc2ncc(F)c(Nc3ccc4c(c3)OCCO4)n2)c(OC)c1` [Compound R926789] it is greater than 10 µM.
As to `CCCCCCOc1ccc(Nc2ncc(F)c(Nc3ccc4c(c3)OCCO4)n2)cc1` [Compound R920664], the IC50 is greater than 10 µM.
The same measure, in the same setting: the figure for `Oc1cccc(Nc2ncc(F)c(Nc3ccc4[nH]ccc4c3)n2)c1` [Compound R926932] is 2.91 µM; for `O=C1COc2cc(Nc3ncc(F)c(Nc4cccc(O)c4)n3)ccc2N1` [Compound R908699] it is 1.03 µM.
`Nc1cccc(Nc2ncc(F)c(Nc3cccc(N)c3)n2)c1` [Compound R950107]: the IC50 stood at 5.42 µM.
The same measure, in the same setting: in the case of `CCOC(=O)CNc1nc(NCC(=O)OCC)c([N+](=O)[O-])c(C(=O)OCC)n1` [Compound R925864] it was 19.1 µM.
The same measure, in the same setting: in the case of `Cc1onc(-c2ccccc2)c1Nc1ncc(F)c(Nc2ccc3c(c2)OCCO3)n1` [Compound R926743] it was greater than 10 µM.
`COC(=O)c1cc(Nc2ncc(F)c(Nc3cccc(O)c3)n2)ccc1OC` [Compound R940301] came in with an IC50 of 1.31 µM.
With `COC(=O)c1cc2cc(Nc3ncc(F)c(Nc4ccc5c(c4)OCCO5)n3)ccc2o1` [Compound R926690], the IC50 came to 13.4 µM.
On the same count and under the same terms, in the case of `CCc1ccc(Nc2ncc(F)c(Nc3ccc4c(c3)OCCO4)n2)cc1` [Compound R926237] it was greater than 10 µM.
Same read-out and setting: the figure for `O=[N+]([O-])c1cnc(Nc2ccc3c(c2)OCCO3)nc1Nc1ccc2c(c1)OCCO2` [Compound R940095] is greater than 10 µM.
